Values joined by “and” are separate entries in the source; they are usually repeats but may differ in a detail not shown here. Equal values may be shown once.
Tests used:
[1] = elderly; cited from earlier work
[2] = biological target: T1, α1β2γ2 GABAA receptors (Rattus norvegicus, UniProt P18508+P62813); test: Stimulation of currents elicited by GABA (EC3-5), two-electrode voltage clamp, receptors expressed in Xenopus oocytes; assay type: cell-based
T1 construct: expressed in transfected cells; host or cells: Xenopus laevis oocytes, cRNA microinjection
T1 sequence (P62813 28-455): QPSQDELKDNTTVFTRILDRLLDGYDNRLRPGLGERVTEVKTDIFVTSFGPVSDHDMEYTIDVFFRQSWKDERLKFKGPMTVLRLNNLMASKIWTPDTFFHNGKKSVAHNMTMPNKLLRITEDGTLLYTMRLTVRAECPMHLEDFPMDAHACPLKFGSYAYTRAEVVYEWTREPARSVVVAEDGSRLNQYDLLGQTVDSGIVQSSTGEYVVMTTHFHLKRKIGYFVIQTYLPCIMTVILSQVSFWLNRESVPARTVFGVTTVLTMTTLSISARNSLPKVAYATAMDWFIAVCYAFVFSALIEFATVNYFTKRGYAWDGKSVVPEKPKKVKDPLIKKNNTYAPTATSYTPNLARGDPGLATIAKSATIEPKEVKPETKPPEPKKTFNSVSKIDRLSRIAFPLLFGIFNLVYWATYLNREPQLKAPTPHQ
T1 sequence (P63138 25-474 partner limits assumed): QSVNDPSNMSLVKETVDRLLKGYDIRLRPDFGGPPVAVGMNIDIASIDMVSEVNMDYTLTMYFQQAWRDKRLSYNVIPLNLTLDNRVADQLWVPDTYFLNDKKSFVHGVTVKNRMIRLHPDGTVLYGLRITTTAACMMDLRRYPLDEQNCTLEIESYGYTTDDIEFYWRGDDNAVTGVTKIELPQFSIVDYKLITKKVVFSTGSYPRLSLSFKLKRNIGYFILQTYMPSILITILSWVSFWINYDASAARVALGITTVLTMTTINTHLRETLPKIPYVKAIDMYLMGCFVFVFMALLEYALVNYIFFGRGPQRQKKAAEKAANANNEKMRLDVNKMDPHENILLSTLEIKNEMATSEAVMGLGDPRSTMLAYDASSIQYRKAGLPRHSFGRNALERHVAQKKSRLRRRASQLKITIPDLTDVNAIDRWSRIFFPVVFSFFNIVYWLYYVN
T1 sequence (P18508 39-466): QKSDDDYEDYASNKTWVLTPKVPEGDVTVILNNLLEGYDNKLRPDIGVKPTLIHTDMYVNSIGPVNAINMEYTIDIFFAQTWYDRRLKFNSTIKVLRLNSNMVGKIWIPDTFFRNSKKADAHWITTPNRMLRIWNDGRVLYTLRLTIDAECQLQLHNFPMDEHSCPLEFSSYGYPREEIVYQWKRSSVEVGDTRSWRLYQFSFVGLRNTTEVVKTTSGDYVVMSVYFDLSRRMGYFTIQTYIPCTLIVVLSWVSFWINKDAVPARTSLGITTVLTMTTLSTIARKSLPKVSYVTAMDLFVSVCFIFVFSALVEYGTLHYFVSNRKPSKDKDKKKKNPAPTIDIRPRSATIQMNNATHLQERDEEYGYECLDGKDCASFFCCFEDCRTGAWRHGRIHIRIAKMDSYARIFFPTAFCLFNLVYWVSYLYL
Excerpt: (§1) 7-Chloro-3-(5-dimethylaminomethyl-[1,2,4]oxadiazol-3-yl)-5-methyl-4,5-dihydro-imidazol[1,5,-a][1,4]benzodiazepine-6-one was used to test the effects of the compound of formula (II): […]
(§2) Similar procedures were chosen as for the investigation of other GABAA receptor subunit specific substances (e.g., Baur et al., 2005; Mol. Pharmacol. 68, 787-792).
(§3) Lobes of the ovary containing the follicles were obtained by surgical procedures from female Xenopus laevis. Follicles were singled out using a platinum loop. Fifty nL of cRNA solution at a ratio of αx:β2:γ2 of 1:1:5 (3.3-10 nM αx (x=1, 2, 3, 5); 3.3-10 nM β2; 16.7-50 nM γ2) (Boileau et al., 2002; Neuropharmacology 43, 695-700) were microinjected into Xenopus follicles. Several hours after microinjection the follicles were freed of follicular layers and adhering connective tissue by a collagenase/hypertonic shock procedure (Sigel, 1987; J. Physiol. (Land) 386, 73-90). Oocytes were kept at constant 18° C. until measurement (1-4 days) in a modified Barth solution (88 mM NaCl, 1 mM KCl, 2.4 mM NaHCO3, 10 mM Hepes-NaOH (pH 7.5), 0.82 mM MgSO4×7H2O, 0.34 mM Ca(NO3)2×4H2O, 0.41 mM CaCl2×2H2O, 100 U Penicillin/mL, 100 μg Streptomycin/mL, sterile filtered).
(§4) Currents were measured using a home-built amplifier in combination with a xy-recorder or were digitized using a MacLab/200 (AD Instruments) and stored on a computer. Xenopus oocytes were voltage clamped using the two-electrode voltage clamp technique (electrode resistance about 0.8 MΩ) at −80 mV. The medium contained 90 mM NaCl, 1 mM KCl, 1 mM MgCl2, 1 mM CaCl2, 10 mM Na-Hepes (pH 7.4) and 0.5% DMSO.
GABA was applied for 20-50 seconds without or in combination with other drugs and a washout period of 4 minutes was allowed to ensure full recovery from desensitization, which was experimentally determined. The perfusion solution (6 mL/min) was applied through a glass capillary with an inner diameter of 1.35 mm, the mouth of which was placed about 0.4 mm from the surface of the oocyte. The rate of solution change under our conditions has been estimated 70% within less than 0.5 s (Sigel et al., 1990; Neuron 5, 703-711). The entire perfusion system and the assay chamber were cleaned between drug applications by washing with DMSO.
Data is given as mean±SD, except in the figures where data is shown for clarity as mean±SEM. Current stimulation was calculated as follows: stimulation (%)=((I(GABA+modulator)−I(GABA))/I(GABA))×100%, where I is the current amplitude. Where indicated, the stimulation was standardized to the stimulation by 1 μM diazepam (100%). To obtain FIGS. 1-4, values for current stimulation obtained at a given concentration of modulator at a given subunit combination were averaged. The data points were fitted with the equation stimulation=efficacy/(1+(potency/concentration of modulator)). The values given in the Tables (Summary) are obtained by fitting individual curves and subsequently averaging efficacy and potency. […]
GABA was then applied in combination with various concentrations of the compound of formula (II) between 0.3 nM and 3,000 nM to produce a cumulative concentration response curve. […] In each batch of oocytes the stimulation by 1 μM diazepam was determined in five oocytes, extent of stimulation averaged and defined as 100%. Where indicated, stimulation by the compound of formula (II) in each batch of oocytes was expressed as a percentage of this value in the corresponding batch. […]

[3] = biological target: T2, α5β2γ2 GABAA receptors (Rattus norvegicus, UniProt P18508+P19969); test: as above; assay type: cell-based; conditions: 1 μM; different batches of oocytes, n=5 each
T2 construct: expressed in transfected cells; host or cells: Xenopus laevis oocytes, cRNA microinjection
T2 sequence (P19969 32-464 limits assumed): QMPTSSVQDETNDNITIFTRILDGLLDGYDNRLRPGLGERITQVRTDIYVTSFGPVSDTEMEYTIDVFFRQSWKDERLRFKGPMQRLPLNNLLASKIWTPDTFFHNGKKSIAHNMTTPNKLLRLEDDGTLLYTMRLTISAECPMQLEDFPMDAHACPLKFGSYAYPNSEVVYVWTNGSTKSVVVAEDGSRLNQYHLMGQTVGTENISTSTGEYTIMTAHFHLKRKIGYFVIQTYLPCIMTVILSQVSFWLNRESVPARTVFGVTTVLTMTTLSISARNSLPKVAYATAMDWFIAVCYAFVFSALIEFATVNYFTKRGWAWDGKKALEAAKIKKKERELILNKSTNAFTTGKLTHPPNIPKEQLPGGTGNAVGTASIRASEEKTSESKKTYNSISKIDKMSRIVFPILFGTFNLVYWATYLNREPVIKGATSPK
T2 sequence (P63138 25-474 partner limits assumed): as the sequence (P63138 25-474 partner limits assumed) above
T2 sequence (P18508 39-466): as the sequence (P18508 39-466) above
Excerpt: as §1, §2, §3
as §4, with “The medium contained 90 mM NaCl, 1 mM KCl, 1 mM MgCl2, 1 mM CaCl2, 10 mM Na-Hepes (pH 7.4) and 0.5% DMSO.” left out
(§5) GABA was applied for 20-50 seconds without or in combination with other drugs and a washout period of 4 minutes was allowed to ensure full recovery from desensitization, which was experimentally determined. […]
(§6) Data is given as mean±SD, except in the figures where data is shown for clarity as mean±SEM. Current stimulation was calculated as follows: stimulation (%)=((I(GABA+modulator)−I(GABA))/I(GABA))×100%, where I is the current amplitude. […]
(§7) Current stimulation by diazepam was determined in each batch of oocytes as follows. […]

[4] = biological target: T3, α3β2γ2 GABAA receptors (Rattus norvegicus, UniProt P18508+P20236); test: as above; assay type: cell-based; conditions: 1 μM; different batches of oocytes, n=5 each
T3 construct: expressed in transfected cells; host or cells: Xenopus laevis oocytes, cRNA microinjection
T3 sequence (P20236 29-493): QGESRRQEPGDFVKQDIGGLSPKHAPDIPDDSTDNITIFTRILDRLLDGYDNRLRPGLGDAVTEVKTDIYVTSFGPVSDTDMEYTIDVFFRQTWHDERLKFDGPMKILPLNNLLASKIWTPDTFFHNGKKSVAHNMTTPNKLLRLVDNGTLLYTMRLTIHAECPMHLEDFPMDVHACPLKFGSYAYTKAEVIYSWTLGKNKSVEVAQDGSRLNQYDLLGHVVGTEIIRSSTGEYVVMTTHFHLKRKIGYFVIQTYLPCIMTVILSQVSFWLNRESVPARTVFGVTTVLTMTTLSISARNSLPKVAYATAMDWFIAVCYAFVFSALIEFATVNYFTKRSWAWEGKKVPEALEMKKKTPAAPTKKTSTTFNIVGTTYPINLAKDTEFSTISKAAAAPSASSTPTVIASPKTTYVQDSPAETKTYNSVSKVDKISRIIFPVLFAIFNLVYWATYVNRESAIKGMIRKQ
T3 sequence (P63138 25-474 partner limits assumed): as the sequence (P63138 25-474 partner limits assumed) above
T3 sequence (P18508 39-466): as the sequence (P18508 39-466) above
Excerpt: as §1, §2, §3
as §4, with “The medium contained 90 mM NaCl, 1 mM KCl, 1 mM MgCl2, 1 mM CaCl2, 10 mM Na-Hepes (pH 7.4) and 0.5% DMSO.” left out
as §5, §6, §7

[5] = biological target: T4, α2β2γ2 GABAA receptors (Rattus norvegicus, UniProt P18508+P23576); test: as above; assay type: cell-based; conditions: 1 μM; different batches of oocytes, n=5 each
T4 construct: expressed in transfected cells; host or cells: Xenopus laevis oocytes, cRNA microinjection
T4 sequence (P23576 29-451): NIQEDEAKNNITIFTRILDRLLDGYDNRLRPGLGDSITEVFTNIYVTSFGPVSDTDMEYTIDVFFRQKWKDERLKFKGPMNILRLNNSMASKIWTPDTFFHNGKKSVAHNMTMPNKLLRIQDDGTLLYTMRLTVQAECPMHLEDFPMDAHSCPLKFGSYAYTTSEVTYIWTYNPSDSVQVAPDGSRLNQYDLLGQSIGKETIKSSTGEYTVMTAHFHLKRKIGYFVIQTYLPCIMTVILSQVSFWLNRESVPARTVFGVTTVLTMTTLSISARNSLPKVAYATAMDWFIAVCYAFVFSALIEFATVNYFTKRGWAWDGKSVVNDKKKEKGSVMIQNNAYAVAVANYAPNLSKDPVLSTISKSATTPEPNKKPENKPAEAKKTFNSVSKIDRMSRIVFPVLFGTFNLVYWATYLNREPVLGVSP
T4 sequence (P63138 25-474 partner limits assumed): as the sequence (P63138 25-474 partner limits assumed) above
T4 sequence (P18508 39-466): as the sequence (P18508 39-466) above
Excerpt: as §1, §2, §3
as §4, with “The medium contained 90 mM NaCl, 1 mM KCl, 1 mM MgCl2, 1 mM CaCl2, 10 mM Na-Hepes (pH 7.4) and 0.5% DMSO.” left out
as §5, §6, §7

[6] = test system: GABAA receptors; conditions: 20 mg, PET, in man; cited from earlier work

Structure (SMILES): CN1CCN(C(=O)O[C@H]2c3nccnc3C(=O)N2c2ccc(Cl)cn2)CC1 [eszopiclone]
- half-life [1]: 9 h

Structure (SMILES): CN1C(=O)CN=C(c2ccccc2)c2cc(Cl)ccc21 [diazepam]
- Current stimulation ([2]; 1 μM, different batches of oocytes, n=5 each): 223±28% and 178±20%
- Current stimulation [3]: 237±97% and 160±4%
- Current stimulation [4]: 417±85% and 417±144%
- Current stimulation [5]: 264±61% and 280±71% and 318±62%

Structure (SMILES): Cc1ccc(-c2nc3ccc(C)cn3c2CC(=O)N(C)C)cc1 [zolpidem]
- Receptor subtype affinity in comparison to α2β2γ2, α3β2γ2 and α5β2γ2 [2]: higher affinity at α1β2γ2 GABAA receptors
- Intrinsic activity / type of allosteric modulation ([2]; GABAA receptor benzodiazepine site): full agonist
- receptor occupancy [6]: about 20%
